{"source": "patent US20250170129A1", "about": "“SENOTHERAPEUTIC AGENTS AND ALPHA-KLOTHO POLYPEPTIDES” (Mayo Foundation for Medical Education and Researc, priority 2022, published 2025)", "type_in_all_cases": "in vivo, mouse", "key": {"[1]": {"system": "α-Klotho", "assay": "Senolytics / AP20187 in young INK-ATTAC mice, kidney and urinary α-Klotho", "details": "young (3-month-old) INK-ATTAC mice; Dasatinib (5 mg/kg) plus Quercetin (50 mg/kg) or AP20187 (10 mg/kg) (FIG. 12A)", "experimental": "FIGS. 12A-12B. […] 3-month-old female INK-ATTAC mice were treated with vehicle, Dasatinib (5 mg/kg) plus Quercetin (50 mg/kg), or AP20187 (10 mg/kg). FIG. 12A) Kidneys were harvested and lysed to assay α-Klotho protein by Western blotting. FIG. 12B) Urinary α-Klotho in the same cohort was assayed by ELISA after a second and third treatment with senolytic agents and expressed as a function of creatinine.\nα-Klotho was assayed by ELISA in 1:100 diluted mouse urine (IBL America, #27601). Human urine α-Klotho was assayed by ELISA (IBL America, #27998, RRID:AB_2750859). Urine α-Klotho measurements are expressed as a function of urine volume, creatinine (R&D Systems, #KGE005), and/or cystatin C (R&D Systems, #MSCTC0).\nTissue extracts were homogenized using a Bead Mill 24 homogenizer (Waltham) and lysed in NETN buffer (20 mM Tris-HCl, pH 8.0, 100 mM NaCl, 1 mM EDTA, 0.5% Nonidet P-40), 5 mM NaF, a protease inhibitor cocktail (Millipore Sigma), and 5 mM nicotinamide. After incubating 30 minutes at 4° C., samples were centrifuged at 15,000 rpm for 10 minutes at 4° C. Protein concentrations of the supernatants were determined by the Bradford protein assay (BioRad). Lysates were separated by SDS-PAGE and transferred by electrophoresis to PVDF membranes (Millipore Sigma). […]"}, "[2]": {"system": "activin A", "assay": "Activin A mRNA in kidney of old INK-ATTAC mice (qPCR)", "details": "10 mg/kg i.p. (FIG. 3H)", "experimental": "(§1) FIGS. 3A-3I. Genetic clearance of highly p16^Ink4a-expressing cells increases α-Klotho. Young (8-month-old) or old (27-29-month-old) INK-ATTAC male mice were treated with vehicle or AP20187 (n=3 young+vehicle; n=3 young+AP20187; n=7 old+vehicle; n=7 old+AP20187) to dimerize the FKBP-caspase-8 fusion protein expressed in highly p16^Ink4a-expressing cells to selectively eliminate […]. AP20187 (10 mg/kg) or vehicle was administered i.p. every 2 weeks for 6 weeks. FIG. 3A) Schematic view of treatments. FIG. 3B) Kidney α-Klotho mRNA was assayed by qPCR. One-way ANOVA, F=4.81, p=0.01, R^2=0.46; *p=0.03, **p<0.01. FIG. 3C) α-Klotho protein was assayed relative to GAPDH (Western blots in FIG. 13). One-way ANOVA: F=4.81, p=0.01, R^2=0.46; *p<0.05, ****p<0.0001. FIG. 3D) Mouse urine was collected 2 days after the last dose of AP20187. Urinary α-Klotho was assayed by ELISA and expressed as a function of creatinine. One-way ANOVA, F=61.53, p<0.00001, R^2=0.90; *p=0.04, ****p<0.0001. Choroid Plexus (FIG. 3E) α-Klotho protein was assayed by immunofluorescence. […]\n(§2) Each cDNA sample was generated by reverse transcription using 1 μg RNA following the manufacturer's protocol (Thermo Fisher Scientific). […] Data were analysed by the ΔΔCt method.\n(§3) Next, it was determined if removal of p16^Ink4a-expressing cells, many of which are senescent, increases α-Klotho in old mice. […]"}, "[3]": {"system": "IL-1α", "assay": "IL-1α mRNA in hippocampus of old INK-ATTAC mice (qPCR)", "details": "10 mg/kg i.p. (FIG. 3I)", "experimental": "as §1, §2, §3"}, "[4]": {"system": "α-Klotho", "assay": "Clearance of p16Ink4a-expressing cells / senolytics in old INK-ATTAC mice, α-Klotho in kidney, urine, brain", "details": "10 mg/kg i.p.", "quoted_text": "AP20187 (10 mg/kg) or vehicle was administered i.p. every 2 weeks for 6 weeks. […] FIG. 3B) Kidney α-Klotho mRNA was assayed by qPCR. One-way ANOVA, F=4.81, p=0.01, R^2=0.46; *p=0.03, **p<0.01. FIG. 3C) α-Klotho protein was assayed relative to GAPDH (Western blots in FIG. 13). One-way ANOVA: F=4.81, p=0.01, R^2=0.46; *p<0.05, ****p<0.0001. FIG. 3D) Mouse urine was collected 2 days after the last dose of AP20187. Urinary α-Klotho was assayed by ELISA and expressed as a function of creatinine. One-way ANOVA, F=61.53, p<0.00001, R^2=0.90; *p=0.04, ****p<0.0001. Choroid Plexus (FIG. 3E) α-Klotho protein was assayed by immunofluorescence. One-way ANOVA, F=20.98, R^2=0.80, **p<0.01, ****p<0.0001. Hippocampal (FIG. 3F) and cerebellar (FIG. 3G) α-Klotho mRNA was assayed by qPCR. […] Means±SEM; one-way ANOVA and post hoc Tukey's tests; F=3.84, p=0.038, R^2=0.40; *p=0.04 in (FIG. 3F); *p=0.04, F=7.87, p<0.01, R^2=0.60; *p=0.03 in (FIG. 3G); F=10.85; p<0.001, R^2=0.64; *p=0.03, ***p<0.0001 in (FIG. 3H); F=5.49; p=0.01, R^2=0.49; *p<0.05, **p=0.01 in (FIG. 3I).\nOld (25-26-month-old) INK-ATTAC male mice were treated with vehicle or AP20187 or D+Q (n=7). AP20187 or D+Q or vehicle was administered every 2 weeks for 6 weeks. Mouse urine was collected 5 days after the last dose of AP20187 or D+Q. Urinary α-Klotho was assayed by ELISA and expressed as a function of creatinine (FIG. 10A) or Cystatin C (FIG. 10B). One-way ANOVA, A: *p=0.038, **p=0.0066, B: *p=0.048, **p=0.0048.\nINK-ATTAC mice were as described elsewhere (Baker et al., Nature, 479(7372):232-6 (2011)). Briefly, in INK-ATTAC mice, the ATTAC gene is driven by a senescence-related p16^Ink4a promoter fragment. The fusion protein product of the ATTAC “suicide” gene contains a mutated FKBP moiety that can be cross-linked by AP20187, thereby activating the ATTAC protein caspase-8 moieties, causing apoptosis. […]\nEach cDNA sample was generated by reverse transcription using 1 μg RNA following the manufacturer's protocol (Thermo Fisher Scientific). […] Data were analysed by the ΔΔCt method. […]"}}, "data": [{"smiles": "CC[C@H](C(=O)N1CCCC[C@H]1C(=O)O[C@H](CCc1ccc(OC)c(OC)c1)c1cccc(OCC(=O)NCC(CNC(=O)COc2cccc([C@@H](CCc3ccc(OC)c(OC)c3)OC(=O)[C@@H]3CCCCN3C(=O)[C@@H](CC)c3cc(OC)c(OC)c(OC)c3)c2)CN(C)C)c1)c1cc(OC)c(OC)c(OC)c1", "note": "[AP20187]", "values": [{"measurement": "kidney α-Klotho (protein, Western blotting)", "setting": "[1]", "result": "did not increase"}, {"measurement": "activin A in kidneys (mRNA, qPCR)", "setting": "[2]", "result": "decreased"}, {"measurement": "IL-1α in brains (hippocampus mRNA, qPCR)", "setting": "[3]", "result": "decreased"}, {"measurement": "urinary α-Klotho (ELISA, function of creatinine)", "setting": "[4]; vs vehicle (FIG. 3D, FIG. 10)", "result": "increased"}, {"measurement": "Kidney α-Klotho (mRNA by qPCR, protein by Western blot)", "setting": "[4]; vs vehicle (FIGS. 3B-C)", "result": "increased"}, {"measurement": "Brain α-Klotho (choroid plexus protein IF; hippocampal and cerebellar mRNA)", "setting": "[4]; vs vehicle (FIGS. 3E-G)", "result": "increased"}]}]}
